Peptide text beside a SMILES is read from it.
Legend:
Arabidopsis FLS2 = details: ref Bauer et al., 2001; cited from earlier work
From the text: The fate of flg22 inside plant cells is similar to that of Potato mop-top and Cauliflower mosaic virus movement proteins, which are endocytosed and delivered to pre-vacuoles/late endosomal structures ([Haupt et al., 2005]; [Carluccio et al., 2014]). Endosomal trafficking of the movement proteins is essential for the spread of viruses to distal tissues, as is endocytosis of flg22 for efficient peptide movement to systemic tissue, although ...

Arabidopsis plants = assay: Long-distance transport after surface application of fluorescent peptide; format: in vivo, Arabidopsis thaliana; details: 1 d
Method: We applied 10–20 μl of 5 μM TAMRA–flg22 (without or with inhibitors: 50 μM MG132 or 50 mM BDM) to a filter paper disc placed on the adaxial side of one leaf of in vitro-grown Arabidopsis plants and distal tissues were imaged by confocal microscopy after 1 d. For experiments with mixed peptides, 5 μM TAMRA–flg22 + 10 μM FAM–scrambled peptides were used.
[^14C]sucrose radioactivity was quantified in a scintillation counter.

FLS2 = target: T1, FLS2 (Arabidopsis thaliana, UniProt Q9FL28); assay: ROS assay in leaf discs; format: cell-based; details: flg22-induced ROS; Supplementary Fig. S1B
T1 construct: treating Col and fls2 leaf discs (prefloated on water overnight) with 1 μM peptide and measuring ROS induction; from tissue; host or cells: Arabidopsis thaliana Col leaf discs (fls2 mutant as negative control)
T1 sequence (Q9FL28 24-1173): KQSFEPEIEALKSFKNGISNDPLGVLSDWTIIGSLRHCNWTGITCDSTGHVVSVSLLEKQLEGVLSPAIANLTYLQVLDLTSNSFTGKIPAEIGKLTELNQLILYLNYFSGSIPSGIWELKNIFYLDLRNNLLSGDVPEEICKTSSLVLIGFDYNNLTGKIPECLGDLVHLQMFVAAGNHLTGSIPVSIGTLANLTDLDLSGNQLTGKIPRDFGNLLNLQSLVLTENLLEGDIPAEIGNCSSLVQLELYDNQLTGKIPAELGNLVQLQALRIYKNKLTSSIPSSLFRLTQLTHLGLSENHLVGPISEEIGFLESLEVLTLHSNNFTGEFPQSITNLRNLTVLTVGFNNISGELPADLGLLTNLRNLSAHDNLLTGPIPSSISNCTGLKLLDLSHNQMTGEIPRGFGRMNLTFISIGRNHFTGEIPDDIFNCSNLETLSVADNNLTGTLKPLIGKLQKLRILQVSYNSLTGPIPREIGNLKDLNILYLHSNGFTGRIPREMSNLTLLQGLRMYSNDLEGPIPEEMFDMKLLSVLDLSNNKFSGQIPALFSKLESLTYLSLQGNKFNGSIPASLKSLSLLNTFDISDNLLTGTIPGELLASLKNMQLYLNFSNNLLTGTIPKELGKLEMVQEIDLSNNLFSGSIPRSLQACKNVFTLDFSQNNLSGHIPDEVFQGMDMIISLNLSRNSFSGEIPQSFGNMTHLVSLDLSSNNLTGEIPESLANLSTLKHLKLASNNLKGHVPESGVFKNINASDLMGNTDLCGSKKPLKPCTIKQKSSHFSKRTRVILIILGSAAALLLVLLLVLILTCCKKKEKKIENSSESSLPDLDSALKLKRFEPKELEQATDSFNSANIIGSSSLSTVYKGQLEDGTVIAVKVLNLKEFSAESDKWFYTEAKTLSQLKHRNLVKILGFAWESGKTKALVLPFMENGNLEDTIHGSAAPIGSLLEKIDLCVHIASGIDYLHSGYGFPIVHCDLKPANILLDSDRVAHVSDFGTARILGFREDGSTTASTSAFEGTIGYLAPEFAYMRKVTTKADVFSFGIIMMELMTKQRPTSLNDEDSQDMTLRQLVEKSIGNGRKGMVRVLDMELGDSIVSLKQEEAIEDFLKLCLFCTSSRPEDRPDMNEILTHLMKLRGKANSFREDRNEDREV
T1 sequence (Q94F62 26-615 partner): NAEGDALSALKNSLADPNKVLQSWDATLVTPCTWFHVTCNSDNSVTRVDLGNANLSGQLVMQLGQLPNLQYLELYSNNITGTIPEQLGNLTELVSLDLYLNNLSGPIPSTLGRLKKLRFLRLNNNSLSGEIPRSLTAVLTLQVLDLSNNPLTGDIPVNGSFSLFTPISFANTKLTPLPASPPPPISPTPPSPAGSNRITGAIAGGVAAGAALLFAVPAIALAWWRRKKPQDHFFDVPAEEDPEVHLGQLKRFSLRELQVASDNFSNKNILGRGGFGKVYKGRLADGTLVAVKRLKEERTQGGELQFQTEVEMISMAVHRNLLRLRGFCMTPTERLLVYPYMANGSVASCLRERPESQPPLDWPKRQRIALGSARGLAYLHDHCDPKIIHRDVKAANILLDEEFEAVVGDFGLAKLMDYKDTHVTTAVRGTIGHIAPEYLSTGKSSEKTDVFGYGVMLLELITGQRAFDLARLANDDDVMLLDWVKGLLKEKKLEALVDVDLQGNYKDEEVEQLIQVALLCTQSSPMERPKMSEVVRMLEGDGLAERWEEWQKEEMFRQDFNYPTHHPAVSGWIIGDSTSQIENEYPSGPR
Method: Bioactivity was verified for each batch of peptides by treating Col and fls2 leaf discs (prefloated on water overnight) with 1 μM peptide and measuring ROS induction as described in ([Tateda et al., 2014]).

Arabidopsis leaf discs = assay: Subcellular localization, uptake and accumulation of flg22 in leaf discs; format: cell-based, Arabidopsis thaliana; details: Col leaf discs
Method: Leaf discs were floated (abaxial side down) on 1–5 μM TAMRA–flg22 or 5–10 μM FAM–flg22 solution (in water) at room temperature for the indicated time (lower concentrations were used for overnight treatments). Inhibitors that affect endocytosis, MG132 (Sigma-Aldrich, 50 μM) or 2,3-butanedione monoxime (BDM; Sigma-Aldrich, 50 mM) were added at the same time as the peptides. FM4-64 (Invitrogen, 6–8 μM) or 2′,7′-bis-(2-carboxyethyl)-5-(and-6)-carboxyfluorescein (BCECF)-AM (cleaved by an endogenous plant esterase to BCECF, Invitrogen, 20–40 μM) mixed with peptide solution was vacuum infiltrated for 2 min into leaf discs ([Kang et al., 2014]) prior to incubation (floating on peptide/dye solution) for the indicated time. In some experiments FAM–Y-flg22 was used with results similar to FAM–flg22.
For experiments with mixed peptides, leaf discs were floated for the indicated time on 2 μM FAM–flg22, FAM–scrambled peptide or fluorescein mixed with 1 μM TAMRA–flg22. In all experiments, leaf discs were washed after treatment by gently shaking for several minutes in water and the abaxial side was imaged by confocal or epifluorescence microscopy (see ‘Microscopy’). Fluorescence intensity profiles were generated with ImageJ, as in [Spallek et al., (2013)] and [Bozkurt et al. (2015)] (see ‘Data analysis’).
Confocal images were obtained using a Zeiss LSM710 laser-scanning confocal microscope (Zeiss, Germany) as described in [Kang et al. (2014)]. Fluorescence was visualized as follows: GFP/FAM/fluorescein/BCECF excitation (ex) 488 nm/emission (em) 495–545 nm; TAMRA ex 561 nm/em 566–620 nm; FM4-64: ex 561 nm/em 686–758 nm. Green and red fluorescence was acquired for the same field using a sequential acquisition mode.
Fluorescence intensity profiles were generated with ImageJ (http://rsb.info.nih.gov/ij, last accessed 6 April 2017) using RGB Profiler and Color Profiler. Fluorescent puncta were manually counted in 20 μm × 20 μm confocal image areas as in [Irani et al. (2012)] and [Chaparro-Garcia et al., (2015)] and shown as a fraction ([Irani et al., 2012]; [Choi et al., 2013]). […]

Row | Structure (SMILES) | reversibility of binding to microsomal membranes (Arabidopsis FLS2) | amount detected in distal organs (Arabidopsis plants; fls2 and bak1 mutants versus Col, 5 μM on filter paper disc, confocal, P<0.0002, n≥7) | effect of endocytosis inhibitor on defense activation measured by ROS production (FLS2) | effect of inhibitor on long-distance movement of TAMRA–flg22 (Arabidopsis plants; Col, 5 μM TAMRA–flg22 with 50 μM MG132 or 50 mM BDM on filter paper disc) | effect of inhibitor on initial binding/uptake of TAMRA–flg22 (Arabidopsis leaf discs; 5 μM TAMRA–flg22 with 50 μM MG132 or 50 mM BDM added simultaneously, 1–2 h) | effect of inhibitor on overnight accumulation of TAMRA–flg22 in vacuoles (Arabidopsis leaf discs; 1–2 μM TAMRA–flg22 with 50 μM MG132 or 50 mM BDM, overnight)
1 | CC[C@H](C)[C@H](NC(=O)[C@H](CCC(N)=O)NC(=O)[C@H](CC(C)C)NC(=O)CNC(=O)[C@H](C)NC(=O)[C@H](C)NC(=O)[C@H](CC(=O)O)NC(=O)[C@H](CC(=O)O)NC(=O)[C@H](CCCCN)NC(=O)[C@H](C)NC(=O)[C@H](CO)NC(=O)[C@H](CC(N)=O)NC(=O)[C@@H](NC(=O)[C@H](CCCNC(=N)N)NC(=O)[C@H](CO)NC(=O)CNC(=O)[C@@H](NC(=O)[C@H](CO)NC(=O)[C@H](CC(C)C)NC(=O)[C@H](CCCNC(=N)N)NC(=O)[C@@H](N)CCC(N)=O)[C@@H](C)O)[C@@H](C)CC)C(=O)N[C@@H](C)C(=O)O [flg22] (H-QRLSTGSRINSAKDDAAGLQIA-OH) | reversible | significantly less | – | – | – | –
2 | CC(=O)C(C)=NO [BDM, 2,3-butanedione monoxime, reference compound] | – | – | impaired defense activation | prevented | did not prevent initial peptide binding/uptake | did not accumulate in vacuoles

Reference: paper PMC5444442, “Flagellin peptide flg22 gains access to long-distance trafficking in Arabidopsis via its receptor, FLS2” (Journal of Experimental Botany, 2017)
